From patent US20240425517A1, “NOVEL COMPOUND FOR DEGRADATION OF TARGET PROTEIN OR POLYPEPTIDE BY POLYUBIQUITINATION” (PRAZER THERAPEUTICS INC., priority 2021, published 2024)

Each molecule was assayed against T1, BRD4 proteins (Homo sapiens, UniProt O60885) (assay: Degradation of BRD4 protein in MM.1S cell lines (Western blot densitometry)). Details: MM.1S cells, 10 μM, 24 hours.
T1 construct: endogenous in cells; host or cells: MM.1S
Assay type: cell-based
Protocol: To confirm that the compounds (BRD4 degraders) of Preparation Examples I′ to IV′ reduce the amount of BRD4 proteins, experiments were performed using MM.1S cell lines, which are B cells derived from the blood of multiple myeloma patients.
Specifically, the MM.1S cells were cultured in RPMI-1640 medium supplemented with 10% fetal bovine serum and Penicillin/Streptomycin (100 U/mL), transferred to a 6-well plate, and after 24 hours, the BRD4 degraders were diluted in the culture medium and the cells were treated with 10 μM each. After treatment, the cells were incubated in a C02 incubator for 24 hours. Through protein immunoblotting (Western Blot), the degrading capacity of each compound against BRD4 proteins in cells was confirmed. After cell culture was completed according to the experimental conditions, the cells were collected and centrifuged at 1,800 rpm for 3 minutes. The cells in the precipitate were lysed with RIPA (25 mM Tris-HCl pH 7.6, 150 mM NaCl, 1% NP-40, 1% sodium deoxycholate, 0.1% SDS, 1× Protease Inhibitor Cocktail), 5× sample buffer was added, and then heated at 100° C. for 15 minutes. The prepared sample was electrophoresed with sodium dodecyl sulfate poly acrylamide gel electrophoresis (SDS-PAGE), and then the proteins in the gel were transferred to a PVDF membrane using Trans-Blot Turbo. The membrane was treated with a 5% bovine serum albumin (BSA) solution and blocked at room temperature for 2 hours, and then BRD4 and R-actin antibodies were diluted in the 5% BSA solution to react with the membrane at 4° C. overnight. After washed with PBST (0.5% Tween20) 5 times, horse radish peroxidase (HRP)-conjugated secondary antibodies were diluted in PBST to react at room temperature for 2 hours, and then washed again with a PBST solution 5 times. After enzyme-substrate reaction was carried out using a HRP substrate, a signal was measured with chemi-doc equipment, and the densitometry of a band corresponding to the BRD4 protein detected in the Preparation Example Compounds was quantitatively analyzed. The case when the degrading capacity of each BRD4 degrader was reduced by less than 40% is indicated as +, the case when the degrading capacity was reduced by 40% to 70% (exclusive of 70) is indicated as ++, the case when the degrading capacity was reduced by 70% or more is indicated as +++ in Tables 16 to 19 below. As shown in the following Tables, it was confirmed that the compounds of Preparation Examples I′ to IV′ according to the present invention have excellent degrading capacity.

Q: Cc1sc2c(c1C)C(c1ccc(Cl)cc1)=N[C@@H](CC(=O)Nc1ccc(C#CCN)cc1)c1nnc(C)n1-2.Cl [1-1′, (S)—N-(4-(3-aminoprop-1-yn-1-yl)phenyl)-2-(4-(4-chlorophenyl)-2,3,9-trimethyl-6H-thieno[3,2-f][1,2,4]triazolo[4,3-a][1,4]diazepin-6-yl)acetamide hydrochloride] was tested. Which “BRD4 degrading capacity (%)” value did it give?
A: ++ (the degrading capacity was reduced by 40% to 70% (exclusive of 70))

Q: Which “BRD4 degrading capacity (%)” value does the source give for Cc1sc2c(c1C)C(c1ccc(Cl)cc1)=N[C@@H](CC(=O)Nc1cccc(C#CCN)c1)c1nnc(C)n1-2.Cl [1-3′, (S)—N-(3-(3-aminoprop-1-yn-1-yl)phenyl)-2-(4-(4-chlorophenyl)-2,3,9-trimethyl-6H-thieno[3,2-f][1,2,4]triazolo[4,3-a][1,4]diazepin-6-yl)acetamide hydrochloride] here?
A: ++ (the degrading capacity was reduced by 40% to 70% (exclusive of 70))

Q: COC(=O)c1cc(NC(=O)C[C@@H]2N=C(c3ccc(Cl)cc3)c3c(sc(C)c3C)-n3c(C)nnc32)ccc1C#CCN.Cl [3-1′, methyl (S)-2-(3-aminoprop-1-yn-1-yl)-5-(2-(4-(4-chlorophenyl)-2,3,9-trimethyl-6H-thieno[3,2-f][1,2,4]triazolo[4,3-a][1,4]diazepin-6-yl)acetamido)benzoate hydrochloride] was tested. Which “BRD4 degrading capacity (%)” value did it give?
A: +++ (the degrading capacity was reduced by 70% or more)

Q: Which “BRD4 degrading capacity (%)” value does the source give for Cc1sc2c(c1C)C(c1ccc(Cl)cc1)=N[C@@H](CC(=O)Nc1ccc(C#CCN)c(C(=O)O)c1)c1nnc(C)n1-2.Cl [3-2′, (S)-2-(3-aminoprop-1-yn-1-yl)-5-(2-(4-(4-chlorophenyl)-2,3,9-trimethyl-6H-thieno[3,2-f][1,2,4]triazolo[4,3-a][1,4]diazepin-6-yl)acetamido)benzoic acid hydrochloride] here?
A: ++ (the degrading capacity was reduced by 40% to 70% (exclusive of 70))

Q: Which “BRD4 degrading capacity (%)” value does the source give for Cc1sc2c(c1C)C(c1ccc(Cl)cc1)=N[C@@H](CC(=O)Nc1ccc(C#CCN)c(CO)c1)c1nnc(C)n1-2.Cl [3-3′, (S)—N-(4-(3-aminoprop-1-yn-1-yl)-3-(hydroxymethyl)phenyl)-2-(4-(4-chlorophenyl)-2,3,9-trimethyl-6H-thieno[3,2-f][1,2,4]triazolo[4,3-a][1,4]diazepin-6-yl)acetamide hydrochloride] here?
A: +++ (the degrading capacity was reduced by 70% or more)

Q: With Cc1sc2c(c1C)C(c1ccc(Cl)cc1)=N[C@@H](CC(=O)Nc1ccc(C#CCN)c(COP(=O)(O)O)c1)c1nnc(C)n1-2 [3-8′, (S)-2-(3-aminoprop-1-yn-1-yl)-5-(2-(4-(4-chlorophenyl)-2,3,9-trimethyl-6H-thieno[3,2-f][1,2,4]triazolo[4,3-a][1,4]diazepin-6-yl)acetamido)benzyl dihydrogen phosphate trifluoroacetic acid] as the molecule, how does the “BRD4 degrading capacity (%)” value read?
A: + (the degrading capacity of each BRD4 degrader was reduced by less than 40%)

Q: How did the “BRD4 degrading capacity (%)” value turn out when COC(=O)c1ccc(NC(=O)C[C@@H]2N=C(c3ccc(Cl)cc3)c3c(sc(C)c3C)-n3c(C)nnc32)cc1C#CCN.Cl [3-25′, methyl (S)-2-(3-aminoprop-1-yn-1-yl)-4-(2-(4-(4-chlorophenyl)-2,3,9-trimethyl-6H-thieno[3,2-f][1,2,4]triazolo[4,3-a][1,4]diazepin-6-yl)acetamido)benzoate hydrochloride] was run?
A: +++ (the degrading capacity was reduced by 70% or more)

Q: For Cc1sc2c(c1C)C(c1ccc(Cl)cc1)=N[C@@H](CC(=O)Nc1ccc(C(=O)O)c(C#CCN)c1)c1nnc(C)n1-2.Cl [3-26′, (S)-2-(3-aminoprop-1-yn-1-yl)-4-(2-(4-(4-chlorophenyl)-2,3,9-trimethyl-6H-thieno[3,2-f][1,2,4]triazolo[4,3-a][1,4]diazepin-6-yl)acetamido)benzoic acid hydrochloride], which “BRD4 degrading capacity (%)” value is on record?
A: ++ (the degrading capacity was reduced by 40% to 70% (exclusive of 70))

Q: Cc1sc2c(c1C)C(c1ccc(Cl)cc1)=N[C@@H](CC(=O)Nc1ccc(CO)c(C#CCN)c1)c1nnc(C)n1-2.Cl [3-27′, (S)—N-(3-(3-aminoprop-1-yn-1-yl)-4-(hydroxymethyl)phenyl)-2-(4-(4-chlorophenyl)-2,3,9-trimethyl-6H-thieno[3,2-f][1,2,4]triazolo[4,3-a][1,4]diazepin-6-yl)acetamide hydrochloride] was tested. Which “BRD4 degrading capacity (%)” value did it give?
A: ++ (the degrading capacity was reduced by 40% to 70% (exclusive of 70))

Q: Which “BRD4 degrading capacity (%)” value does the source give for Cc1sc2c(c1C)C(c1ccc(Cl)cc1)=N[C@@H](CC(=O)Nc1ccc(C#CC(N)CO)cc1)c1nnc(C)n1-2.Cl (stereo partly drawn) [3-49′, N-(4-(3-amino-4-hydroxybut-1-yn-1-yl)phenyl)-2-((S)-4-(4-chlorophenyl)-2,3,9-trimethyl-6H-thieno[3,2-f][1,2,4]triazolo[4,3-a][1,4]diazepin-6-yl)acetamide hydrochloride] here?
A: ++ (the degrading capacity was reduced by 40% to 70% (exclusive of 70))

Q: With Cc1sc2c(c1C)C(c1ccc(Cl)cc1)=N[C@@H](CC(=O)Nc1cccc(C#CC(N)CO)c1)c1nnc(C)n1-2.Cl (stereo partly drawn) [3-51′, N-(3-(3-amino-4-hydroxybut-1-yn-1-yl)phenyl)-2-((S)-4-(4-chlorophenyl)-2,3,9-trimethyl-6H-thieno[3,2-f][1,2,4]triazolo[4,3-a][1,4]diazepin-6-yl)acetamide hydrochloride] as the molecule, how does the “BRD4 degrading capacity (%)” value read?
A: +++ (the degrading capacity was reduced by 70% or more)

Q: For Cc1sc2c(c1C)C(c1ccc(Cl)cc1)=N[C@@H](CC(=O)Nc1ccc(C#CC(N)COP(=O)(O)O)cc1)c1nnc(C)n1-2 (stereo partly drawn) [3-57′, 2-amino-4-(4-(2-((S)-4-(4-chlorophenyl)-2,3,9-trimethyl-6H-thieno[3,2-f][1,2,4]triazolo[4,3-a][1,4]diazepin-6-yl)acetamido)phenyl)but-3-yn-1-yl dihydrogen phosphate trifluoroacetic acid], which “BRD4 degrading capacity (%)” value is on record?
A: ++ (the degrading capacity was reduced by 40% to 70% (exclusive of 70))

Q: For Cc1sc2c(c1C)C(c1ccc(Cl)cc1)=N[C@@H](CC(=O)NCC#Cc1ccc(C#CCN)o1)c1nnc(C)n1-2.Cl [4-1′, (S)—N-(3-(5-(3-aminoprop-1-yn-1-yl)furan-2-yl)prop-2-yn-1-yl)-2-(4-(4-chlorophenyl)-2,3,9-trimethyl-6H-thieno[3,2-f][1,2,4]triazolo[4,3-a][1,4]diazepin-6-yl)acetamide hydrochloride], which “BRD4 degrading capacity (%)” value is on record?
A: ++ (the degrading capacity was reduced by 40% to 70% (exclusive of 70))

Q: Which “BRD4 degrading capacity (%)” value does the source give for COC(=O)c1cc(N2CCN(C(=O)C[C@@H]3N=C(c4ccc(Cl)cc4)c4c(sc(C)c4C)-n4c(C)nnc43)CC2)ccc1C#CCN.Cl [4-2′, methyl (S)-2-(3-aminoprop-1-yn-1-yl)-5-(4-(2-(4-(4-chlorophenyl)-2,3,9-trimethyl-6H-thieno[3,2-f][1,2,4]triazolo[4,3-a][1,4]diazepin-6-yl)acetyl)piperazin-1-yl)benzoate hydrochloride] here?
A: +++ (the degrading capacity was reduced by 70% or more)

Q: Cc1sc2c(c1C)C(c1ccc(Cl)cc1)=N[C@@H](CC(=O)NCC#Cc1ccc(C#CCN)s1)c1nnc(C)n1-2.Cl [4-10′, (S)—N-(3-(5-(3-aminoprop-1-yn-1-yl)thiophen-2-yl)prop-2-yn-1-yl)-2-(4-(4-chlorophenyl)-2,3,9-trimethyl-6H-thieno[3,2-f][1,2,4]triazolo[4,3-a][1,4]diazepin-6-yl)acetamide hydrochloride] was tested. Which “BRD4 degrading capacity (%)” value did it give?
A: +++ (the degrading capacity was reduced by 70% or more)

Q: How did the “BRD4 degrading capacity (%)” value turn out when Cc1sc2c(c1C)C(c1ccc(Cl)cc1)=N[C@@H](CC(=O)NCCC(=O)Nc1ccc(C#CCN)cc1)c1nnc(C)n1-2.Cl [4-124′, (S)—N-(4-(3-aminoprop-1-yn-1-yl)phenyl)-3-(2-(4-(4-chlorophenyl)-2,3,9-trimethyl-6H-thieno[3,2-f][1,2,4]triazolo[4,3-a][1,4]diazepin-6-yl)acetamido)propanamide hydrochloride] was run?
A: +++ (the degrading capacity was reduced by 70% or more)

Q: How did the “BRD4 degrading capacity (%)” value turn out when Cc1sc2c(c1C)C(c1ccc(Cl)cc1)=N[C@@H](CC(=O)NCCC(=O)Nc1ccc(C#CCN)c(CO)c1)c1nnc(C)n1-2.Cl [4-125′, (S)—N-(4-(3-aminoprop-1-yn-1-yl)-3-(hydroxymethyl)phenyl)-3-(2-(4-(4-chlorophenyl)-2,3,9-trimethyl-6H-thieno[3,2-f][1,2,4]triazolo[4,3-a][1,4]diazepin-6-yl)acetamido)propanamide hydrochloride] was run?
A: +++ (the degrading capacity was reduced by 70% or more)
